# Experimental data: PubChem BioAssay (NCI)
#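 Five compound concentrations were applied to cells in 96-well plates for 48 hours; endpoints were derived by simple linear interpolation of the resulting dose-response curve. GI50 marks 50% less growth. TGI denotes the concentration required for complete inhibition of growth.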
# How the values were obtained:
# Assay in all cases: inhibition of tumour cell growth, NCI panel, 48 h
# K-562 leukemia = system: K-562 leukemia
# MDA-MB-231 breast = system: MDA-MB-231 breast
# SN12C renal = system: SN12C renal
# SF-268 CNS = system: SF-268 CNS
# EKVX NSCLC = system: EKVX NSCLC
# SNB-75 CNS = system: SNB-75 CNS
# COLO 205 colon = system: COLO 205 colon
# A549 NSCLC = system: A549 NSCLC
# BT-549 breast = system: BT-549 breast
# TK-10 renal = system: TK-10 renal
Structure (SMILES),TGI (K-562 leukemia) [µM],TGI (MDA-MB-231 breast) [µM],TGI (SN12C renal) [µM],TGI (SF-268 CNS) [µM],TGI (EKVX NSCLC) [µM],TGI (SNB-75 CNS) [µM],TGI (COLO 205 colon) [µM],TGI (A549 NSCLC) [µM],TGI (BT-549 breast) [µM],TGI (TK-10 renal) [µM],GI50 (K-562 leukemia) [µM],GI50 (MDA-MB-231 breast) [µM],GI50 (SN12C renal) [µM],GI50 (SF-268 CNS) [µM],GI50 (EKVX NSCLC) [µM],GI50 (SNB-75 CNS) [µM],GI50 (COLO 205 colon) [µM],GI50 (A549 NSCLC) [µM],GI50 (BT-549 breast) [µM],GI50 (TK-10 renal) [µM]
CC(C)(C)OC(=O)NC(Cc1ccccc1)C(=O)OCN1C(=O)C2C3C=CC(C2C1=O)C1C2C(=O)N(COC(=O)C(Cc4ccccc4)NC(=O)OC(C)(C)C)C(=O)C2C31 (stereo not drawn),> 100,> 94.2,> 100,> 88.9,> 100,58.9,28.7,> 73.8,92.6,> 91.2,,,,,,,,,,
Nc1n[nH]c2ccc([C@@H]3Nc4ccc5[nH]ncc5c4[C@H]4[C@H]5CCC(C5)[C@H]43)cc12,> 100,18.5,> 89.7,43.7,> 100,11.3,5.68,> 100,9.29,> 79.5,0.264,0.688,0.618,1.56,0.606,0.16,0.375,0.586,0.489,8.25
Brc1cccc(-c2cc(-c3ccc4c(c3)OCCO4)[nH]n2)c1,250,32.7,36.8,37.1,49.6,6.58,26,37.6,47.8,40.7,0.584,3.65,1.47,3.11,7.21,0.531,1.03,1.57,1.62,3.3
O=C(/C=C/c1ccc(Cl)cc1)c1ccc(Cl)cc1Cl,14.2,22.1,20.9,21.8,19.7,,30.8,17.5,14.8,14,1.68,10.9,9.96,10.1,9.33,,12.1,8.63,7.44,7.42
